# Assays:
# Assay in all cases: Post-emergence efficacy, Method A
# Type in all cases: in vivo
# [1] = tested on: Echinochloa crus-galli (ECHCG); conditions: Application rate 500 g/Ha, evaluated after 13 days; for Control of weed species ECHCG after post-emergence application (100=total damage to plant; 0=no damage to plant): Method A
# How it was run: (§1)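 Plants grown 14 days in glasshouse (24/16° C., 14 h light, 65% humidity), then sprayed post-emergence with compound formulated in IF50 and diluted in 0.25% or 1% Empicol ESC70 + 1% ammonium sulphate. Damage scored after 13 days (0 none to 100 total).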
# Eleusine indica (ELEIN) = conditions: Application rate 500 g/Ha, evaluated after 13 days; for Control of weed species ELEIN after post-emergence application (100=total damage to plant; 0=no damage to plant): Method A
# How it was run: as §1
# [2] = tested on: Euphorbia heterophylla (EPHHL); conditions: Application rate 500 g/Ha, evaluated after 13 days; for Control of weed species EPHHL after post-emergence application (100=total damage to plant; 0=no damage to plant): Method A
# How it was run: as §1
# [3] = tested on: Amaranthus palmeri (AMAPA); conditions: Application rate 500 g/Ha, evaluated after 13 days; for Control of weed species AMAPA after post-emergence application (100=total damage to plant; 0=no damage to plant): Method A
# How it was run: as §1
# [4] = tested on: Chenopodium album (CHEAL); conditions: Application rate 500 g/Ha, evaluated after 13 days; for Control of weed species CHEAL after post-emergence application (100=total damage to plant; 0=no damage to plant): Method A
# How it was run: as §1
# Lolium perenne (LOLPE) = conditions: Application rate 500 g/Ha, evaluated after 13 days; for Control of weed species LOLPE after post-emergence application (100=total damage to plant; 0=no damage to plant): Method A
# How it was run: as §1
# [5] = tested on: Ipomoea hederacea (IPOHE); conditions: Application rate 500 g/Ha, evaluated after 13 days; for Control of weed species IPOHE after post-emergence application (100=total damage to plant; 0=no damage to plant): Method A
# How it was run: as §1
# Setaria faberi (SETFA) = conditions: Application rate 500 g/Ha, evaluated after 13 days; for Control of weed species SETFA after post-emergence application (100=total damage to plant; 0=no damage to plant): Method A
# How it was run: as §1
# [6] = tested on: Digitaria sanguinalis (DIGSA); conditions: Application rate 500 g/Ha, evaluated after 13 days; for Control of weed species DIGSA after post-emergence application (100=total damage to plant; 0=no damage to plant): Method A
# How it was run: as §1
# [7] = 100=total damage to plant, 0=no damage
SMILES,"Control of weed species after post-emergence application, ECHCG [1, 7]","Control of weed species after post-emergence application, ELEIN (Eleusine indica (ELEIN); [7])","Control of weed species after post-emergence application, EPHHL [2, 7]","Control of weed species after post-emergence application, AMAPA [3, 7]","Control of weed species after post-emergence application, CHEAL [4, 7]","Control of weed species after post-emergence application, LOLPE (Lolium perenne (LOLPE); [7])","Control of weed species after post-emergence application, IPOHE [5, 7]","Control of weed species after post-emergence application, SETFA (Setaria faberi (SETFA); [7])","Control of weed species after post-emergence application, DIGSA [6, 7]",Control of weed species ECHCG after post-emergence application (100=total damage to plant; 0=no damage to plant) [1],Control of weed species ELEIN after post-emergence application (100=total damage to plant; 0=no damage to plant) (Eleusine indica (ELEIN)),Control of weed species EPHHL after post-emergence application (100=total damage to plant; 0=no damage to plant) [2],Control of weed species AMAPA after post-emergence application (100=total damage to plant; 0=no damage to plant) [3],Control of weed species CHEAL after post-emergence application (100=total damage to plant; 0=no damage to plant) [4],Control of weed species LOLPE after post-emergence application (100=total damage to plant; 0=no damage to plant) (Lolium perenne (LOLPE)),Control of weed species IPOHE after post-emergence application (100=total damage to plant; 0=no damage to plant) [5],Control of weed species SETFA after post-emergence application (100=total damage to plant; 0=no damage to plant) (Setaria faberi (SETFA)),Control of weed species DIGSA after post-emergence application (100=total damage to plant; 0=no damage to plant) [6],further results
O=S(=O)([O-])CC[n+]1ccc(-c2cccnc2)cn1 [Compound A179],40,50,60,30,30,10,20,60,50,,,,,,,,,,
"CCOP(=O)(O)CC[n+]1ccc(-c2ncccn2)cn1.O=C([O-])C(F)(F)F [Compound A113, ethoxy-[2-(4-pyrimidin-2-ylpyridazin-1-ium-1-yl)ethyl]phosphinate]",,,,,,,,,,60,40,100,40,90,10,60,50,60,
COP(=O)(C[n+]1ccc(-c2ccncn2)cn1)OC.O=S(=O)([O-])C(F)(F)F [Compound A237],10,70,0,60,10,10,50,20,50,,,,,,,,,,
"O=C(O)CC[n+]1ccc(-c2ncc(Cl)c(=O)[nH]2)cn1 [Compound A161, 3-[4-(5-chloro-6-oxo-1H-pyrimidin-2-yl)pyridazin-1-ium-1-yl]propanoic acid 2,2,2-trifluoroacetate]",20,20,50,30,70,10,20,10,20,,,,,,,,,,
"N[C@@H](C[n+]1ccc(-c2ncccn2)cn1)C(=O)O [Compound A208, [(1S)-1-carboxy-2-(4-pyrimidin-2-ylpyridazin-1-ium-1-yl)ethyl]ammonium 2,2,2-trifluoroacetate]",30,60,50,100,80,10,20,60,40,,,,,,,,,,
"COP(=O)(C[n+]1ccc(-c2ncccn2)cn1)OC.O=S(=O)([O-])C(F)(F)F [Compound A238, 1-(dimethoxyphosphorylmethyl)-4-pyrimidin-2-yl-pyridazin-1-ium trifluoromethanesulfonate]",40,30,50,50,20,10,40,50,50,,,,,,,,,,
N#Cc1cnc(-c2cc[n+](CCS(=O)(=O)[O-])nc2)nc1 [Compound A25],,,,,,,,,,70,50,40,100,60,40,50,60,50,
"COC(=O)C[n+]1ccc(-c2ncccn2)cn1.[Br-] [Compound A2, methyl 2-(4-pyrimidin-2-ylpyridazin-1-ium-1-yl)acetate bromide]",,,,,,,,,,50,30,90,60,20,0,10,80,40,
CCOP(=O)(CC[n+]1ccc(-c2cnccn2)cn1)OCC.O=C([O-])C(F)(F)F [Compound A8],,,,,,,,,,10,20,10,10,10,0,10,20,20,
O=c1cc(-c2cc[n+](CCCS(=O)(=O)[O-])nc2)nc[nH]1 [Compound A116],,,,,,,,,,20,20,50,100,80,10,10,30,30,
Nc1cc(-c2cc[n+](CCS(=O)(=O)[O-])nc2)nc(N)n1 [Compound A187],,,,,,,,,,,,,,,,,,,"pest or weed control at 500 g/ha ([1]; Echinochloa crus-galli, post-emergence, 312 h, 100=total damage to plant, 0=no damage, read-out: Control of weed species after post-emergence application, ECHCG): 20%; pest or weed control at 500 g/ha (Eleusine indica (ELEIN); Eleusine indica, post-emergence, 312 h, 100=total damage to plant, 0=no damage, read-out: Control of weed species after post-emergence application, ELEIN): 10%; pest or weed control at 500 g/ha ([2]; Euphorbia heterophylla, post-emergence, 312 h, 100=total damage to plant, 0=no damage, read-out: Control of weed species after post-emergence application, EPHHL): 50%; pest or weed control at 500 g/ha ([3]; Amaranthus palmeri, post-emergence, 312 h, 100=total damage to plant, 0=no damage, read-out: Control of weed species after post-emergence application, AMAPA): 50%; pest or weed control at 500 g/ha ([4]; Chenopodium album, post-emergence, 312 h, 100=total damage to plant, 0=no damage, read-out: Control of weed species after post-emergence application, CHEAL): 40%; pest or weed control at 500 g/ha (Lolium perenne (LOLPE); Lolium perenne, post-emergence, 312 h, 100=total damage to plant, 0=no damage, read-out: Control of weed species after post-emergence application, LOLPE): 10%; pest or weed control at 500 g/ha ([5]; Ipomoea hederacea, post-emergence, 312 h, 100=total damage to plant, 0=no damage, read-out: Control of weed species after post-emergence application, IPOHE): 20%; pest or weed control at 500 g/ha (Setaria faberi (SETFA); Setaria faberi, post-emergence, 312 h, 100=total damage to plant, 0=no damage, read-out: Control of weed species after post-emergence application, SETFA): 10%; pest or weed control at 500 g/ha ([6]; Digitaria sanguinalis, post-emergence, 312 h, 100=total damage to plant, 0=no damage, read-out: Control of weed species after post-emergence application, DIGSA): 20%"
